Experimental data from patent publication US20230212180A1, “SUBSTITUTED PYRAZINE COMPOUND, PHARMACEUTICAL COMPOSITION COMPRISING SAME, AND USE THEREOF” (Sichuan Kelun-Biotech Biopharmaceutical Co., Ltd., priority 2020, published 2023).
Numbering of substitutions follows the chain as printed.

Assays:
Assay in all cases: Kinase selectivity test (ThermoFisher)
Format in all cases: biochemical
Parameters in all cases: concentration or dose not given beside the values
AAK1 = target: T1, AAK1 (Homo sapiens, UniProt Q2M2I8)
T1 construct: purchased ThermoFisher USA (contract testing)
Method: (§1) Test Example 11: Kinase Selectivity Test
(§2) 1. Experimental Purpose: Tests for selectivity of the compounds of the present disclosure for a plurality of kinases were carried out to assess the safety risk of the compounds of the present disclosure.
(§3) 2. Test institution: ThermoFisher USA
(§4) 3. Testing methods: LanthaScreen binding, Z′-LYTE, Adapta
(§5) 4. Test targets: 100 targets in total

FLT3 D835Y = target: T2, FLT3 D835Y (Homo sapiens, UniProt P36888, D835Y)
T2 construct: purchased ThermoFisher USA (contract testing)
T2 sequence (P36888 27-993 D835Y): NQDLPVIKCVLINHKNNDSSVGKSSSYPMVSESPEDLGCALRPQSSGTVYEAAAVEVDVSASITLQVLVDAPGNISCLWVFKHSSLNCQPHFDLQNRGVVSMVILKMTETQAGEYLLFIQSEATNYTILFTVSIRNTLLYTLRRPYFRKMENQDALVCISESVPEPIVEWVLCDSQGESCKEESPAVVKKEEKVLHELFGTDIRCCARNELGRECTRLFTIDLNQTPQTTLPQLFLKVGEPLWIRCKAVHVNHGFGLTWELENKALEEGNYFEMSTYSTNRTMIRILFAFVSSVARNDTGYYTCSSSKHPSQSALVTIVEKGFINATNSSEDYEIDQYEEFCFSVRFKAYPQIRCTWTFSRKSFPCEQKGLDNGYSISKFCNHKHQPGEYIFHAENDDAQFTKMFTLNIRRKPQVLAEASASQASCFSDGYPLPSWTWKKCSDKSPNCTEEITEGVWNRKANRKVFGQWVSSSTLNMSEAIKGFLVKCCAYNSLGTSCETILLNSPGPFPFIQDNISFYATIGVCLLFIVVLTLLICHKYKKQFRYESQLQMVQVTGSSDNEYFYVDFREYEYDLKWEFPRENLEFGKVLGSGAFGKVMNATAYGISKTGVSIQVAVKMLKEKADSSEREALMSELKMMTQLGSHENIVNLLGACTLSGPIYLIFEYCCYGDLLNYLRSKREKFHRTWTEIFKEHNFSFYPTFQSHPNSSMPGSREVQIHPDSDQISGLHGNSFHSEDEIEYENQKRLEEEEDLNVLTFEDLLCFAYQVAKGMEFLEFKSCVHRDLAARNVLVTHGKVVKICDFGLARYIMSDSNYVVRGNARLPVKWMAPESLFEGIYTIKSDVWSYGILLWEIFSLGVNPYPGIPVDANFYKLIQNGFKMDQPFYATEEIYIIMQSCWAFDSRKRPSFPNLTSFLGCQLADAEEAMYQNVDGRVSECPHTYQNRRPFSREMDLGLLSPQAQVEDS
Method: as §1, §2, §3, §4, §5

KDR (VEGFR2) = target: T3, KDR (VEGFR2) (Homo sapiens, UniProt P35968)
T3 construct: purchased ThermoFisher USA (contract testing)
Method: as §1, §2, §3, §4, §5

MET (cMet) = target: T4, MET (cMet) (Homo sapiens, UniProt P08581)
T4 construct: purchased ThermoFisher USA (contract testing)
Method: as §1, §2, §3, §4, §5

FLT3 = target: T5, FLT3 (Homo sapiens, UniProt P36888)
T5 construct: purchased ThermoFisher USA (contract testing)
T5 sequence (P36888 27-993): T2 sequence (P36888 27-993 D835Y) with Y809D
Method: as §1, §2, §3, §4, §5

MAPKAPK2 = target: T6, MAPKAPK2 (Homo sapiens, UniProt P49137)
T6 construct: purchased ThermoFisher USA (contract testing)
Method: as §1, §2, §3, §4, §5

T1 sequence (Q2M2I8 whole entry): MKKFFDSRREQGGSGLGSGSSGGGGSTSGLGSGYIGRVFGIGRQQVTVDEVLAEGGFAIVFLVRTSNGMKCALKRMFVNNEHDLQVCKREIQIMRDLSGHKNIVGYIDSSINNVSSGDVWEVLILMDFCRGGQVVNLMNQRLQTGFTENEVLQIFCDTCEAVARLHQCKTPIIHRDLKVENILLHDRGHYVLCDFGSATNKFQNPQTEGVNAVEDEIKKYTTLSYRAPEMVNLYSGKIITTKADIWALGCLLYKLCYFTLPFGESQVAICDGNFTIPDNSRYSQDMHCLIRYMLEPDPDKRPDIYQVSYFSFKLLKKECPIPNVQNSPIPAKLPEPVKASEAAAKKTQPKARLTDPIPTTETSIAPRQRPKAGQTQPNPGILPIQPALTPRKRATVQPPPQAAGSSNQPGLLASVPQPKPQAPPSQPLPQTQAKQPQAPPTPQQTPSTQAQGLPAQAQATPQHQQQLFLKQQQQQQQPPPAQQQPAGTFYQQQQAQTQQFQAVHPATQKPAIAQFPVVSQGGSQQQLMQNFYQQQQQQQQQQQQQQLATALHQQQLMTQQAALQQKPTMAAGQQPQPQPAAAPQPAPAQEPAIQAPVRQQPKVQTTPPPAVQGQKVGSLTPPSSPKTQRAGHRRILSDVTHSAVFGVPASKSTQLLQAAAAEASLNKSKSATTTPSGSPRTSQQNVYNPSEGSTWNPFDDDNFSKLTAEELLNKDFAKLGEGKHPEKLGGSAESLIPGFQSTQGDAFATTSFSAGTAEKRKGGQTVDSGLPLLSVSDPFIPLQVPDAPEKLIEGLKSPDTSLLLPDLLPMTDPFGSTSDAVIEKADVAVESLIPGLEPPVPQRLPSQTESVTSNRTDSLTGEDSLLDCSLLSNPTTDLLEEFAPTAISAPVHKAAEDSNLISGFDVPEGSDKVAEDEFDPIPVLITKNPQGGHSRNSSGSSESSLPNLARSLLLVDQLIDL
T6 sequence (P49137 whole entry): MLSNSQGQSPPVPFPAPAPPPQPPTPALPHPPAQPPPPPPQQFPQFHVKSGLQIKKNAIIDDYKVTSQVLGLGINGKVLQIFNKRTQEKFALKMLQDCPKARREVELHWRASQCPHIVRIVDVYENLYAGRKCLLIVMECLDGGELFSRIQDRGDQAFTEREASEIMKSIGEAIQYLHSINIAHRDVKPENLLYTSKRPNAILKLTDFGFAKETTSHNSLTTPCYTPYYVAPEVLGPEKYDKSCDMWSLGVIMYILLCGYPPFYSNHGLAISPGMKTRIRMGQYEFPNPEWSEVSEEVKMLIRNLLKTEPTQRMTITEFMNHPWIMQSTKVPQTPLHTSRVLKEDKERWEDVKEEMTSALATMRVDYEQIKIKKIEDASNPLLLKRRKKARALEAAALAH
T4 sequence (P08581 25-1390): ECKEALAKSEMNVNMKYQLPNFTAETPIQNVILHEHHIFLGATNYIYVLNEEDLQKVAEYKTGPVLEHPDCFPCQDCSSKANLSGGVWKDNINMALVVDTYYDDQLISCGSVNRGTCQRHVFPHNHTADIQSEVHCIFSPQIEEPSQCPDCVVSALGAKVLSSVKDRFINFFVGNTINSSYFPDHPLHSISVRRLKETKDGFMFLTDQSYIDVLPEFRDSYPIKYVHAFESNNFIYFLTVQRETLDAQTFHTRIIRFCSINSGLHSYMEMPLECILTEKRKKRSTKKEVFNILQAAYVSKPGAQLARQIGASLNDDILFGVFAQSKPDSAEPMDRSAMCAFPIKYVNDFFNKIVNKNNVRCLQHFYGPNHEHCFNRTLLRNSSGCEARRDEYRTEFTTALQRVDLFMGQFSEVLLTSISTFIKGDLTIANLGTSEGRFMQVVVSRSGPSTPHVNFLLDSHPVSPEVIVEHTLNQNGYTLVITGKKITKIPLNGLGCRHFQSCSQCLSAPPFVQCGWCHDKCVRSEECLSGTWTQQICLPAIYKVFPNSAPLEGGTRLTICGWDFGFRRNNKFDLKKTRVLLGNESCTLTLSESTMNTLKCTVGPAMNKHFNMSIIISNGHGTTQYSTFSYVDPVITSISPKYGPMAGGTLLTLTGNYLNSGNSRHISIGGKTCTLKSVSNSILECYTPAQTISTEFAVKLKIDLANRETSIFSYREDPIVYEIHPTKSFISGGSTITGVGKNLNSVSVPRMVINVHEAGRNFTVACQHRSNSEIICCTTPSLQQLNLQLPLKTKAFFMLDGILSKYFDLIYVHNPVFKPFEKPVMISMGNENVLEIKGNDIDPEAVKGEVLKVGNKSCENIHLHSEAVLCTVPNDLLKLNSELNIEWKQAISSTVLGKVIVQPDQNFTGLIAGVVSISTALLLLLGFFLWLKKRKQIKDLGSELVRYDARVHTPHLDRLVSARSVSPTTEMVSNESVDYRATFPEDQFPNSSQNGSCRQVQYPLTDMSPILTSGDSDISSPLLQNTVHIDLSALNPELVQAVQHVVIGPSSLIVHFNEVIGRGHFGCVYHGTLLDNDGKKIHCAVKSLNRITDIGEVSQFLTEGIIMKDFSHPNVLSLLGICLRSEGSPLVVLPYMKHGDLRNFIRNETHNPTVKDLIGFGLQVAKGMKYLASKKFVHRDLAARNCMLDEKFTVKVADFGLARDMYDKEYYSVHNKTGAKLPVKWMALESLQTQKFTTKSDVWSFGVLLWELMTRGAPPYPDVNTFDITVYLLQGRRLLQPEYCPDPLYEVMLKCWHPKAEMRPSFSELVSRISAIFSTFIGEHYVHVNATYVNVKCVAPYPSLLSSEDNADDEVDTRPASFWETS
T3 sequence (P35968 20-1356): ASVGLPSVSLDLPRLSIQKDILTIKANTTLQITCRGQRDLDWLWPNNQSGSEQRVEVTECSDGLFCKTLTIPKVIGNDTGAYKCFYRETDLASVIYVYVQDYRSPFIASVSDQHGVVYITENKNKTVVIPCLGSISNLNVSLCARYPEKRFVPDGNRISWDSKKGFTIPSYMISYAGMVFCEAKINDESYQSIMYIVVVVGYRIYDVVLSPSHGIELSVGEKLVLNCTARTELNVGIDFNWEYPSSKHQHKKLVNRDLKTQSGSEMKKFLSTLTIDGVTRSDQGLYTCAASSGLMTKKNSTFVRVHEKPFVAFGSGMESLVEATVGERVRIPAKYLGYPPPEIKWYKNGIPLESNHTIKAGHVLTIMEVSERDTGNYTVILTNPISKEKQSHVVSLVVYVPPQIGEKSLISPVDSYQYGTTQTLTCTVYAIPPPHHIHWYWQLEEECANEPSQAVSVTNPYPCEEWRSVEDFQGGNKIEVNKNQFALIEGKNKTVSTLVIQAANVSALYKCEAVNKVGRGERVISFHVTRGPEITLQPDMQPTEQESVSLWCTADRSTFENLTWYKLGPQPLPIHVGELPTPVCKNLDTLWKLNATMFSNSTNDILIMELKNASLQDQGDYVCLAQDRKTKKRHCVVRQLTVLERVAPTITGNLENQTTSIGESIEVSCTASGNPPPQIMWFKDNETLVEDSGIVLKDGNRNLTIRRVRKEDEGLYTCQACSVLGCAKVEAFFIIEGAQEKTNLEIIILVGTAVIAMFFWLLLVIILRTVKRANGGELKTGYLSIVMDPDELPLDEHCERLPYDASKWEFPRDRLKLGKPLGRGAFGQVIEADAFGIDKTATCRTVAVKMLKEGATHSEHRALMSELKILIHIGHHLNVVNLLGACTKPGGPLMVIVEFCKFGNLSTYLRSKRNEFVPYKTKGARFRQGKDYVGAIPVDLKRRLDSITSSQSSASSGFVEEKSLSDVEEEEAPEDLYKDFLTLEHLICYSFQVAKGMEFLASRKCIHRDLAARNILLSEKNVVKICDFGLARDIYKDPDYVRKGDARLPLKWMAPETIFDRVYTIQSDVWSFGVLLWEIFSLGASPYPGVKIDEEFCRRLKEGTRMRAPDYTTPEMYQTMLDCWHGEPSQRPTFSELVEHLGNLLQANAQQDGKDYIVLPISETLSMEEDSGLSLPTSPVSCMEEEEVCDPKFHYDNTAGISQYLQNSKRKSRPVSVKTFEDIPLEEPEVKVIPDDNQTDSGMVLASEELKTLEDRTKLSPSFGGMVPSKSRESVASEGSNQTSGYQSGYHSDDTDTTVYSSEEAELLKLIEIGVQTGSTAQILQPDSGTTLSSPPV

C[C@@H]1OCC2(CCN(c3ncc(Sc4ccnc(N5CC(C(C)(C)O)C5)c4Cl)nc3CO)CC2)[C@@H]1N [Example 12, 2-(1-(4-(5-((3S,4S)-4-amino-3-methyl-2-oxa-8-azaspiro[4.5]decan-8-yl)-6-(hydroxymethyl)pyrazin-2-ylthio)-3-chloropyridin-2-yl)azetidin-3-yl)propan-2-ol]
Inhibition (%) Target 1 (AAK1): 3% | Inhibition (%) Target 2 (AAK1): 0% | Inhibition (%) Mean value (AAK1): 1% | Inhibition (%) Target 1 (FLT3 D835Y): 5% | Inhibition (%) Target 2 (FLT3 D835Y): 6% | Inhibition (%) Mean value (FLT3 D835Y): 6% | Inhibition (%) Target 1 (KDR (VEGFR2)): 3% | Inhibition (%) Target 2 (KDR (VEGFR2)): 4% | Inhibition (%) Mean value (KDR (VEGFR2)): 3% | Inhibition (%) Target 1 (MET (cMet)): −1% | Inhibition (%) Target 2 (MET (cMet)): 16% | Inhibition (%) Mean value (MET (cMet)): 7% | Inhibition (%) Target 1 (FLT3): 11% | Inhibition (%) Target 2 (FLT3): 8% | Inhibition (%) Mean value (FLT3): 9% | Inhibition (%) Target 1 (MAPKAPK2): 31% | Inhibition (%) Target 2 (MAPKAPK2): 27% | Inhibition (%) Mean value (MAPKAPK2): 29%

C[C@@H]1OCC2(CCN(c3cnc(Sc4ccnc(N)c4Cl)c(N)n3)CC2)[C@@H]1N [TNO-155, reference compound]
Inhibition (%) Target 1 (AAK1): 49% | Inhibition (%) Target 2 (AAK1): 46% | Inhibition (%) Mean value (AAK1): 48% | Inhibition (%) Target 1 (FLT3 D835Y): 71% | Inhibition (%) Target 2 (FLT3 D835Y): 69% | Inhibition (%) Mean value (FLT3 D835Y): 70% | Inhibition (%) Target 1 (KDR (VEGFR2)): 73% | Inhibition (%) Target 2 (KDR (VEGFR2)): 73% | Inhibition (%) Mean value (KDR (VEGFR2)): 73% | Inhibition (%) Target 1 (MET (cMet)): 42% | Inhibition (%) Target 2 (MET (cMet)): 40% | Inhibition (%) Mean value (MET (cMet)): 41% | Inhibition (%) Target 1 (FLT3): 96% | Inhibition (%) Target 2 (FLT3): 97% | Inhibition (%) Mean value (FLT3): 97% | Inhibition (%) Target 1 (MAPKAPK2): 106% | Inhibition (%) Target 2 (MAPKAPK2): 107% | Inhibition (%) Mean value (MAPKAPK2): 106%
